Laboratory results: patent publication US8039586B1, “Cerebral organic anion transporter and its gene” (J-Pharma Co., Ltd., priority 1998, dated 2011)
Where two headings read alike, the source gives them in different places.

Experiments:
Type in all cases: cell-based
hOAT3 [1] = target: T1, hOAT3 (Homo sapiens, UniProt Q8TCC7); assay: Uptake of radiolabeled compounds by Xenopus oocyte injected with hOAT3 cRNA
T1 construct: cRNA (RNA complementary to cDNA) was prepared in vitro from the plasmid comprising the hOAT3 recovered above; expressed in transfected cells; host or cells: Xenopus oocytes injected with hOAT3 cRNA
T1 sequence (Q8TCC7 1-542 K271E/D366H): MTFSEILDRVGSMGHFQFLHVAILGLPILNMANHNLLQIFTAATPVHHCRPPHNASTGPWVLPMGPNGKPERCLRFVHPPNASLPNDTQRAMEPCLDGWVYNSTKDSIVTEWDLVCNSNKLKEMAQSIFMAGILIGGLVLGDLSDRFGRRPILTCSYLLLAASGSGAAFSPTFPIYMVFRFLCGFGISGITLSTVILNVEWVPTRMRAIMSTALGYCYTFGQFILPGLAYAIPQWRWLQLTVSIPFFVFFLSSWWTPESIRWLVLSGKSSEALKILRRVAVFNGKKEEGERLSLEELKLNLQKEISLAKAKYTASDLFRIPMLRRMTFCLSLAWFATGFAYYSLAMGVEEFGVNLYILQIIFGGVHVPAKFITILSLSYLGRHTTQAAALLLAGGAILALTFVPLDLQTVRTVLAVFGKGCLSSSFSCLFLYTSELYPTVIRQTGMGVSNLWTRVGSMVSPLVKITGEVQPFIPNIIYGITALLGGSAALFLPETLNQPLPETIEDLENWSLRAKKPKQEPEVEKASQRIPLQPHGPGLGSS
Method: By using T7 RNA polymerase, cRNA (RNA complementary to cDNA) was prepared in vitro from the plasmid comprising the hOAT3 recovered above by the method by Sekine, et al. (see Sekine, T., et al. J. Biol. Chem., Vol. 272, pp. 18526-9, 1997).
According to the already reported method of Sekine, et al. (Sekine, T., et al. J. Biol. Chem., Vol. 272, pp. 18526-9, 1997), the resulting hOAT3 cRNA was injected in the Xenopus oocyte; the oocyte was subjected to an uptake test with various radiolabeled organic anions and organic cations. The control oocyte cell (oocyte cell with no injection of hOAT3 cRNA) and the oocyte cell injected with hOAT3 cRNA were cultured in a buffer containing the following radiolabels for one hour, to assay the uptake of the radiolabels into the oocytes.
In each figure, open column expresses the case of the control oocyte used; and closed column expresses the case of the oocyte injected with hOAT3 cRNA.

hOAT3 [2] = target: T2, hOAT3 (Homo sapiens, UniProt Q8TCC7, D366H/K271E); assay: Inhibition of 3H-estrone sulfate uptake in oocyte injected with hOAT3 cRNA; parameters: cRNA (RNA complementary to cDNA) was prepared in vitro from the plasmid comprising the hOAT3 recovered above; expressed in transfected cells; host or cells: Xenopus oocytes injected with hOAT3 cRNA; conditions: 50 nM 3H-estrone sulfate; non-radiolabeled compound at 500 μM or the concentration shown in FIG. 19; one hour
T2 sequence (Q8TCC7 1-542 K271E/D366H): T1 sequence (Q8TCC7 1-542 K271E/D366H)

rat OAT3 (rk1411) = target: T3, rat OAT3 (rk1411) (Rattus norvegicus, UniProt Q9R1U7); assay: Inhibition of 3H-estrone sulfate uptake in oocyte injected with rk1411 cRNA
T3 construct: cRNA (RNA complementary to cDNA) was prepared in vitro from the plasmid carrying the clone (rk1411); expressed in transfected cells; host or cells: Xenopus oocytes injected with rk1411 cRNA
T3 sequence (Q9R1U7 1-536): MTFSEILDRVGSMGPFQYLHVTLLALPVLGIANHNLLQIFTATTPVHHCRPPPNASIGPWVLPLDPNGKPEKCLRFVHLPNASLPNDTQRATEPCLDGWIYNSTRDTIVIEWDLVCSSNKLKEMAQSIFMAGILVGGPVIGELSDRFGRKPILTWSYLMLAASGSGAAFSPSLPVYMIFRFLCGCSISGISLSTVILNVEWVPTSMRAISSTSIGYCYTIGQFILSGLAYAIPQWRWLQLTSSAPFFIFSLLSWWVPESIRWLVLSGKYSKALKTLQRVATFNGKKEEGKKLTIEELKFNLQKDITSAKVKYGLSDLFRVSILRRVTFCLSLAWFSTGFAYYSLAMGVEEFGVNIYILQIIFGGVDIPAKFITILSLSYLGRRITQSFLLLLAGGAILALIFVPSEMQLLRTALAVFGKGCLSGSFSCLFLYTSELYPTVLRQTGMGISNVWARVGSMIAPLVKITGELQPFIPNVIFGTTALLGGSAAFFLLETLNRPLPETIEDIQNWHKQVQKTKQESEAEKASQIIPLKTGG

[3] = 1 mM unlabeled compound, Xenopus oocyte, FIG. 3
[4] = substrate 10 μM, one hour, versus control oocyte
[5] = substrate 50 nM, one hour, versus control oocyte

Row | Compound | inhibition of the transport of 3H-estrone sulfate with hOAT3 (hOAT3 [2]) | inhibition of 3H-estrone sulfate transport with rk1411 (rat OAT3 (rk1411); [3]) | further results
1 | CC[N+](CC)(CC)CC [TEA, tetraethylammonium] | never exerted any inhibitory action | – | uptake of radiolabeled compound by oocyte with hOAT3 expression (hOAT3 [1]): never transported
2 | CC1(C)S[C@@H]2[C@H](NC(=O)Cc3ccccc3)C(=O)N2[C@H]1C(=O)O [benzylpenicillin] | significantly inhibited | significantly inhibited | –
3 | COc1ccc(CCN(C)CCCC(C#N)(c2ccc(OC)c(OC)c2)C(C)C)cc1OC (centres unmarked) [berapamil] | – | never exerted any such inhibitory action | –
4 | O=C1OC(c2ccc(O)c(S(=O)(=O)O)c2)(c2ccc(O)c(S(=O)(=O)O)c2)c2c(Br)c(Br)c(Br)c(Br)c21 [bromosulfophthalein] | significantly inhibited | significantly inhibited | –
5 | CCCCNc1cc(C(=O)O)cc(S(N)(=O)=O)c1Oc1ccccc1 [bumetanide] | – | significantly inhibited | –
6 | C[C@H](CCC(=O)O)[C@H]1CC[C@H]2[C@@H]3[C@H](O)C[C@@H]4C[C@H](O)CC[C@]4(C)[C@H]3C[C@H](O)[C@]12C [cholic acid] | – | significantly inhibited | uptake of radiolabeled compound by oocyte with hOAT3 expression (hOAT3 [1]; [4]): takes up
7 | CN/C(=N/CCSCc1nc[nH]c1C)NC#N [cimetidine] | – | – | uptake of radiolabeled compound by oocyte with hOAT3 expression (hOAT3 [1]; substrate 150 nM, one hour, versus control oocyte): takes up
8 | C[C@]12CC[C@@H]3c4ccc(O)cc4CC[C@H]3[C@@H]1CC[C@@H]2O[C@@H]1O[C@H](C(=O)O)[C@@H](O)[C@H](O)[C@H]1O [estradiol glucuronide] | – | – | uptake of radiolabeled compound by oocyte with hOAT3 expression (hOAT3 [1]; [5]): takes up
9 | O=C(O)CCCC(=O)O [glutaric acid] | significantly inhibited | – | uptake of radiolabeled compound by oocyte with hOAT3 expression (hOAT3 [1]; [4]): takes up
10 | N=C(N)N [guanidine] | – | never exerted any such inhibitory action | –
11 | CC1(C)C(/C=C/C=C/C=C/C=C2\N(CCCCS(=O)(=O)O)c3ccc4ccccc4c3C2(C)C)=[N+](CCCCS(=O)(=O)[O-])c2ccc3ccccc3c21 [indocyanine green] | – | significantly inhibited | –
12 | COc1ccc2c(c1)c(CC(=O)O)c(C)n2C(=O)c1ccc(Cl)cc1 [indomethacin] | significantly inhibited | – | uptake of radiolabeled compound by oocyte with hOAT3 expression (hOAT3 [1]; [4]): takes up
13 | CN(Cc1cnc2nc(N)nc(N)c2n1)c1ccc(C(=O)N[C@@H](CCC(=O)O)C(=O)O)cc1 [methotrexate] | significantly inhibited | – | uptake of radiolabeled compound by oocyte with hOAT3 expression (hOAT3 [1]; substrate 100 nM, one hour, versus control oocyte): takes up
14 | CCCN(CCC)S(=O)(=O)c1ccc(C(=O)O)cc1 [probenecid] | significantly inhibited | significantly inhibited | –
15 | CCCCC[C@H](O)/C=C/[C@H]1[C@H](O)CC(=O)[C@@H]1C/C=C\CCCC(=O)O [prostaglandin E2] | – | – | uptake of radiolabeled compound by oocyte with hOAT3 expression (hOAT3 [1]; substrate 1 nM, one hour, versus control oocyte): takes up
16 | CN1C(C(=O)Nc2ccccn2)=C(O)c2ccccc2S1(=O)=O [pyroxicam] | – | significantly inhibited | –
17 | O=C(O)c1ccccc1O [salicylic acid] | – | – | uptake of radiolabeled compound by oocyte with hOAT3 expression (hOAT3 [1]; substrate 1 μM, one hour, versus control oocyte): takes up
18 | C[C@H](CCC(=O)NCCS(=O)(=O)O)[C@H]1CC[C@H]2[C@@H]3[C@H](O)C[C@@H]4C[C@H](O)CC[C@]4(C)[C@H]3C[C@H](O)[C@]12C [taurocholic acid] | significantly inhibited | – | uptake of radiolabeled compound by oocyte with hOAT3 expression (hOAT3 [1]; [4]): takes up; inhibition of 3H-estrone sulfate transport with rk1411 (rat OAT3 (rk1411)): significantly inhibited
19 | dehydroepiandrosterone sulfate | – | – | uptake of radiolabeled compound by oocyte with hOAT3 expression (hOAT3 [1]; [5]): takes up
